Measured values taken from article PMC4853715, “Design, Synthesis and Antitumor Activity of Novel link-bridge and B-Ring Modified Combretastatin A-4 (CA-4) Analogues as Potent Antitubulin Agents” (Scientific Reports, 2016).

Test system: A549 cells
Assay: Apoptosis assay, Annexin V-FITC/PI flow cytometry
Assay type: cell-based, human
Conditions: A549, 0.8 μM
Description: The percentages of apoptotic cells were estimated by staining with Annexin-V-FITC and with a PI Apoptosis Detection Kit (KGA105, Keygen biotech, China) according to the manufacturer’s instructions with some modifications. In brief, collected cells were washed once with PBS and subsequently washed once with binding buffer, and then stained with Annexin V-FITC and propidium iodide (PI) in the binding buffer for 20 min at room temperature in the dark. Apoptotic cells were quantified using a […] plotting at least 10,000 events per sample. To quantify the data, the frequencies in all quadrants were analyzed using flowjo 7.6.1 software. Both early apoptotic (Annexin V-positive, PI-negative) and late apoptotic (double positive of Annexin V and PI) cells were detected.

COc1cc(/C=N/NC(=O)c2cn(Cc3ccccc3)c3ccccc23)cc(OC)c1OC [Compound 7]
early apoptosis (Q3) (12 h): 1.84%
total percentage of early and late apoptotic cells (24 h): 33.05%
total percentage of early and late apoptotic cells (48 h): 77.2%
